These results are taken from patent publication US20250367209A1 (SOUTHERN RESEARCH INSTITUTE, priority 2022, published 2025).

Converted amounts (≈) assume the structure as drawn. “Also recorded” adds a separate entry of the source. Where two headings read alike, the source gives them in different places.

Data set [1] concerns primary rat neurons. As to the kind of experiment: Modified MTT assay of Aβ toxicity in primary neurons. It is filed as cell-based. Particulars: for Aβ toxicity / Aβ-induced membrane trafficking dysfunction, modified MTT assay: compound 0.3, 3 or 15 μM, 90-minute pretreatment, 2.5 μM Aβ, 24 hours; for MTT: Table 3, Aβ toxicity in primary neurons. An excerpt:
(§1) Primary neuron cultures: All animal procedures were approved by the Institutional Animal Care and Use Committee at the University of Alabama at Birmingham (UAB). As before (Rush, et al. (2020) Neurobiol Dis 134, 104668; Voskobiynyk, et al. (2020) eLife 9, e57354), primary rat neurons were isolated from timed-pregnant Sprague-Dawley rats. Briefly, dams were euthanized with isoflurane anesthesia asphyxiation, and hippocampal tissue was isolated from E19 embryos in Hibernate E, then digested in papain for 10 minutes at 37° C. Neurons were triturated into a single cell suspension in Neurobasal supplemented with B-27, L-Glutamine, and 10% FBS, then plated in 96-well plates coated with PDL and laminin at 30,000 neurons per well in 200 uL medium or in 24-well coated plates with or without coverslips at 50,000 per well. Cultures were maintained at 37° C. with 5% CO2. Twenty-four hours after plating (DIV1), two 50% media changes with Neurobasal plus B-27 and L-Glutamine without FBS, and 5 μM cytosine β-D-arabinofuranoside was added to prevent glial proliferation. 50% media changes were performed at DIV7 and DIV14 with serum-free supplemented Neurobasal and experiments were started at DIV19.
Aβ oligomer preparation: As before (Rush, et al. (2020) Neurobiol Dis 134, 104668), lyophilized recombinant Aβ42 was dissolved in HFIP, dried overnight, then stored at −20° C. until oligomerization. To oligomerize, Aβ was dissolved in DMSO to 1 mM, then diluted to 100 µM in PBS, then sonicated and left on ice for 24 hours. Immediately prior to use, Aβ was centrifuged at 4° C. for 10 minutes at 14,000×g. Vehicle was prepared as well in identical fashion except lacking the Aβ peptide.
Aβ toxicity assays: The modified MTT and MAP2 assays were adapted from a recent study (Rush, et al. (2020) Neurobiol Dis 134, 104668). Briefly, at DIV19, media on the neurons was reduced to […], then compound was added to final concentration of 0 μM, 0.3 μM, 3 μM, or 15 μM with even amounts of DMSO. After 90-minute pretreatment with compound, 2.5 μM Aβ was added.
The modified MTT assay was performed 24 hours after Aβ application. 100 μM MTT was applied to neurons and incubated at 37° C. for one hour. Media was removed, then replaced with 15 μL 1.6% Tween20 in PBS and incubated on a shaker at 100 rpm for 5 minutes. The Tween was then removed and transferred to a 384-well clear-bottom plate and replaced with 15 μL isopropanol. Plates were again agitated for 5 minutes at RT, then isopropanol was transferred to the 384-well plate. Absorbance was then read at 590 nm on a plate reader, with 660 nm used as a reference. The ratio of Tween soluble MTT to isopropanol soluble (Tween-insoluble) MTT was calculated for each sample, then normalized to the vehicle group average.
In general terms: Formazan colour is commonly taken as a measure of viable cells.

For data set [2], the system named is primary rat neurons. The data set is described as follows: MAP2 ICC assay of Aβ-induced neurite degeneration. It is filed as cell-based. Particulars: compound 0.3, 3 or 15 μM, 90-minute pretreatment, 2.5 μM Aβ.
Text: as §1, with “50% media changes were performed at DIV7 and DIV14 with serum-free supplemented Neurobasal and experiments were started at DIV19.” left out
For the MAP2 ICC assay, neurons were fixed in 4% PFA and 4% sucrose at 37° C. for 30 minutes, then washed 3×5 minutes in PBS. […] Intact neurite length was measured in an unbiased, automated manner using Harmony software, averaged from four images from each well. […]

A further data set is described as follows: Solubility. It is filed as physicochemical. The settings on record: for ADME Sol (μM): Table 3.
A short description of data set [3]: Metabolic stability in mouse liver microsomes. It is filed as in vitro ADME. The settings on record: mouse, liver microsomes.
Data set [4] is described as follows: Partition coefficient (LogD). It is filed as physicochemical. Particulars: Table 3; read-out: ADME LogD. The source says:
A computational analysis of the top five hits was then completed to assess the physical attributes of the compounds emerging from the HTS. The target profile for drug-like properties included evaluation of molecular weight (MW), total polar surface area (PSA, the surface sum of all polar atoms on the molecule), solubility, metabolic stability, and partition coefficient (LogD). In general, MW<[…] and PSA <70 Å^2 were targeted, which generally allows for blood-brain barrier (BBB) permeability. Compounds with PSA >100 A^2 are generally poor at permeating cell membranes. Solubility was targeted at >10 μM at pH 7.4 and 40-60% of compound remaining after 60 minutes of incubation in mouse or human liver microsomes (an indicator of compound stability after first-pass metabolism). LogD is the log of the ratio of concentrations of a compound in two immiscible solvents at equilibrium. Values ranging from 2-4 were targeted, typical for CNS drugs. Based on these criteria, compound no. 55 was selected as the top hit for optimization. Compound no.

Data set [5] can be described thus: Oral administration to mice, brain and plasma concentrations. It is filed as in vivo. The settings on record: male CD1 mice; for brain/plasma ratio: PO 5 mg/kg; for presence in plasma and brain after oral administration: PO 5 mg/kg, 1, 2 and 4 hours. The protocol:
Compounds were sent to Pharmaron to determine if they were blood-brain barrier permeable. Compounds were formulated to 1 mg/mL in 10% NMP, 60% PEG400, 30% saline, then male CD1 mice were treated PO at 5 mg/kg. Brain and plasma concentrations were measured using HPLC-MS at 1 hour, 2 hours, and 4 hours post-treatment.

Where [6] appears, read: Table 3, read-out: ADME t1/2 (min): MLMt1/2.

Regarding `O=C(CCN1C(=O)CSc2ccccc21)Nc1nnc(-c2ccccn2)[nH]1` [compound no. 55], the “Aβ toxicity / Aβ-induced membrane trafficking dysfunction, modified MTT assay” value with primary rat neurons [1] is given as “prevented Aβ-induced membrane trafficking dysfunction; also recorded: ameliorates Aβ toxicity; also recorded: inhibited Aβ toxicity”. For the same molecule, the “Aβ-induced neurite degeneration, MAP2 assay” value in the data set on primary rat neurons [2] is “prevented Aβ-induced neurite degeneration; also recorded: ameliorates Aβ-induced neurite degeneration”.
On to `O=C(CN1CCOc2ccccc21)Nc1nnc(-c2ccccn2)[nH]1` [compound 47, 2-(2,3-DIHYDRO-4H-BENZO[B][1,4]OXAZIN-4-YL)-N-(5-(PYRIDIN-2-YL)-4H-1,2,4-TRIAZOL-3-YL)ACETAMIDE], for which the “ADME Sol (μM)” value in the data set “Solubility” is “Sol = 54 μM”. Moreover, in “Solubility” (pH 7.4, aqueous buffer, Table 2), the Solubility (commonly the dissolved amount per volume that the medium holds) came to 80.2 µM (≈ 27 µg/mL). In addition, in data set [3] (Table 2, read-out: MLM t1/2), the half-life stood at 2 min. Moreover, the logD (in general, lipophilicity at a set pH, counting ionised and neutral species) in data set [4] stood at 1.8. Besides, the MTT result with primary rat neurons [1] is reported as “Active”.
As to `O=C(CN1CCSc2ccccc21)Nc1nnc(-c2ccccn2)[nH]1` [compound no. 20, 2-(2H-BENZO[B][1,4]THIAZIN-4(3H)-YL)-N-(5-(PYRIDIN-2-YL)-4H-1,2,4-TRIAZOL-3-YL)ACETAMIDE], in the data set “Solubility”, the “ADME Sol (μM)” value is “Sol = 14 μM”. In data set [3] (setting [6]), the half-life stood at 9 min. Moreover, the log distribution coefficient (logD) in data set [4] worked out at 2.3. Further, the MTT entry in the data set on primary rat neurons [1] is “Insoluble”. In data set [5], the brain/plasma ratio turned out to be 0.06; the “presence in plasma and brain after oral administration” value (“presence in plasma and brain” below) was “detected in both plasma and brain”.
With `O=C(CN1C(=O)CSc2cc(F)ccc21)Nc1nnc(-c2ccccn2)[nH]1` [compound no. 12, 2-(7-FLUORO-3-oxo-2H-BENZO[B][1,4]THIAZIN-4(3H)-YL)-N-(5-(PYRIDIN-2-YL)-4H-1,2,4-TRIAZOL-3-YL)ACETAMIDE], the “ADME Sol (μM)” value in “Solubility” was “Sol = 41 μM”. Further, the half-life in data set [3] (Table 2, read-out: MLM t1/2) is 146 min. In data set [3] (setting [6]), the half-life was 146 min. Also, the logD in data set [4] turned out to be 2.4. Moreover, in the data set on primary rat neurons [1], the MTT entry is listed as “Active” and the “Aβ toxicity / Aβ-induced membrane trafficking dysfunction, modified MTT assay” value is on record as “inhibited Aβ toxicity; also recorded: did ameliorate Aβ toxicity”. Further, the “presence in plasma and brain” value in data set [5] is “detected in plasma, it did not cross the BBB and was not present in brain”.
Regarding `O=C(CN1C(=O)CSc2cc(Cl)ccc21)Nc1nnc(-c2ccccn2)[nH]1` [compound no. 13, 2-(7-CHLORO-3-OXO-2H-BENZO[B][1,4]THIAZIN-4(3H)-YL)-N-(5-(PYRIDIN-2-YL)-4H-1,2,4-TRIAZOL-3-YL)ACETAMIDE], the logD in data set [4] is 3.1. In addition, in the data set on primary rat neurons [1], the MTT entry is “Active” and the “Aβ toxicity / Aβ-induced membrane trafficking dysfunction, modified MTT assay” value was “inhibited Aβ toxicity; also recorded: did ameliorate Aβ toxicity”.
Take `O=C(CN1C(=O)CSc2cc(F)c(F)cc21)Nc1nnc(-c2ccccn2)[nH]1` [compound no. 14, 2-(6,7-DIFLUORO-3-OXO-2H-BENZO[B][1,4]THIAZIN-4(3H)-YL)-N-(5-(PYRIDIN-2-YL)-4H-1,2,4-TRIAZOL-3-YL)ACETAMIDE]: in data set [4], the logD was 1.9. Also, in the data set on primary rat neurons [1], the MTT result is on record as “Active” and the “Aβ toxicity / Aβ-induced membrane trafficking dysfunction, modified MTT assay” value is reported as “did not ameliorate Aβ toxicity”.
As to `O=C(CN1CCOc2ccccc21)Nc1nnc(-c2ccccn2)[nH]1` [compound no. 69], the “Aβ toxicity / Aβ-induced membrane trafficking dysfunction, modified MTT assay” value in the data set with primary rat neurons [1] is on record as “prevented Aβ-induced membrane trafficking dysfunction; also recorded: ameliorates Aβ toxicity; also recorded: inhibited Aβ toxicity”. Further, the “Aβ-induced neurite degeneration, MAP2 assay” value in the data set on primary rat neurons [2] was “prevented; also recorded: ameliorates Aβ-induced neurite degeneration”. Besides, in data set [5], the brain/plasma ratio is listed as 0.067; the “presence in plasma and brain” value was “presence in both plasma and brain”.
Turning to `Cc1ccc2c(c1)SCC(=O)N2CC(=O)Nc1nnc(-c2ccccn2)[nH]1` [compound no. 23, 2-(7-METHYL-3-OXO-2H-BENZO[B][1,4]THIAZIN-4(3H)-YL)-N-(5-(PYRIDIN-2-YL)-4H-1,2,4-TRIAZOL-3-YL)ACETAMIDE], the “ADME Sol (μM)” value in “Solubility” was “Sol = 57 μM”. Besides, the logD in data set [4] is 2.2. Besides, in the data set with primary rat neurons [1], the MTT result is recorded as “Active” and the “Aβ toxicity / Aβ-induced membrane trafficking dysfunction, modified MTT assay” value is recorded as “inhibited Aβ toxicity; also recorded: did ameliorate Aβ toxicity”.
In the case of `O=C(CN1CCCc2ccccc21)Nc1nnc(-c2ccccn2)[nH]1` [compound no. 45, 2-(3,4-DIHYDROQUINOLIN-1(2H)-YL)-N-(5-(PYRIDIN-2-YL)-4H-1,2,4-TRIAZOL-3-YL)ACETAMIDE], the logD in data set [4] came out at 2.3. In the data set with primary rat neurons [1], the MTT entry was “Active” and the “Aβ toxicity / Aβ-induced membrane trafficking dysfunction, modified MTT assay” value was “inhibited Aβ toxicity; also recorded: did ameliorate Aβ toxicity”.
